Source: paper PMC3328449, “Inhibition of Diacylglycerol–Sensitive TRPC Channels by Synthetic and Natural Steroids” (PLoS ONE, 2012)
Where “and” joins values, the source holds several entries; their conditions need not be identical. Equal values may be shown once.

Experiments:
hTRPC6 = biological target: T1, hTRPC6 (Homo sapiens, UniProt Q9Y210); experiment: OAG-induced Ca2+ entry, fluo-4 fluorometric imaging plate reader, TRPC6 HEK-FITR cells; type: cell-based; settings: for IC50: TRPC6 HEK-FITR cells, fluo-4, area under the curve, 10 min pre-incubation, read-out: IC50, inhibition of OAG-induced Ca2+ entry via TRPC6; for Hill slope n, inhibition of TRPC6-mediated Ca2+ entry: fit to Hill model
T1 construct: expressed in transfected cells
T1 sequence (Q9Y210 1-931): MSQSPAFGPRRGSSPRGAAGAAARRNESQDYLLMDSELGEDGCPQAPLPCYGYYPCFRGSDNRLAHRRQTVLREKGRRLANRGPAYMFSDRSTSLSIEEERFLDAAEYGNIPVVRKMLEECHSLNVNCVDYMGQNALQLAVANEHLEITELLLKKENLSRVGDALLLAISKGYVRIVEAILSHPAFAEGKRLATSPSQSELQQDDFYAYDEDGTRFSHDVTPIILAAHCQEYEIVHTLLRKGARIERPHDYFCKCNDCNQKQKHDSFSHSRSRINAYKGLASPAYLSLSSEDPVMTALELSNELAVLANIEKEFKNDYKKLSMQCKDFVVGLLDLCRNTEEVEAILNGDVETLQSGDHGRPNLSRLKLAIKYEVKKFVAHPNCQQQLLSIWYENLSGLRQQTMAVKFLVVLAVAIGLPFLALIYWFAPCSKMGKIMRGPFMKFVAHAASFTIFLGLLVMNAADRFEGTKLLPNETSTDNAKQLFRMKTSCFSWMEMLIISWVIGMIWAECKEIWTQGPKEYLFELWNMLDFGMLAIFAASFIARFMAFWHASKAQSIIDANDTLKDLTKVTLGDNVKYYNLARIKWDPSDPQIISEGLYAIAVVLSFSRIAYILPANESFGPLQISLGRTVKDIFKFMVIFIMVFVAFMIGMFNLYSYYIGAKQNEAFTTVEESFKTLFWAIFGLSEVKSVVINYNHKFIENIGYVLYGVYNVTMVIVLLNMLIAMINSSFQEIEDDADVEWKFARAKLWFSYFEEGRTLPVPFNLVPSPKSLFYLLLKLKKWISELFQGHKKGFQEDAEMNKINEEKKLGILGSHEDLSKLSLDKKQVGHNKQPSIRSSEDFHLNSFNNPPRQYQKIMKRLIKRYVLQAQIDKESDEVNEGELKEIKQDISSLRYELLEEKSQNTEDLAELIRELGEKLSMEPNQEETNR
Protocol: Cells were grown at 37°C in a humidified atmosphere (5% or 7% CO2) under standard cell culture conditions. Stable human embryonic kidney (HEK) cell lines expressing recombinant mTRPC4ß (GenBank accession number AAC05178); mTRPC5 (GenBank accession number NM_009428) or hTRPC6 (GenBank accession number AF080394) under the control of a tetracycline-inducible promoter were generated using the Flp-In T-Rex (FITR) system (Invitrogen, Karlsruhe, Germany). TRPC4/5/6 HEK-FITR cells were maintained in Dulbecco's modified eagle medium (DMEM, with glutaMAX I, 4.5 g/l glucose and […] sodium pyruvate) supplemented with 10% (v/v) fetal bovine serum (Biochrom, Berlin, Germany), 1 mM glutamine, 1 mM MEM sodium pyruvate, 40 μg/ml hygromycin (50 μg/ml for mTRPC5 HEK-FITR cells), and 15 μg/ml blasticidine HCl. Channel expression was induced by supplementing the growth medium for 18-24 h with 1 μg/ml doxycycline. Cells grown to an almost confluent monolayer on black poly-D-lysine coated 96-well plates (Greiner, Frickenhausen, Germany) were washed with standard extracellular solution (140 mM NaCl, 1 mM MgCl2, 5.4 mM KCl, 2 mM CaCl2, 10 mM HEPES, 10 mM glucose, pH 7.35) and stained (30 min, room temperature) with dye solution (2 μM fluo-4 AM, 0.02% pluronic F127, 0.1% bovine serum albumin in standard extracellular solution). Cells were washed and either incubated with standard extracellular solution only or with different concentrations of test compounds for 10 min. Fluo-4 fluorescence was excited at 488 nm with an argon laser and measured using a fluorometric imaging plate reader (Molecular Devices, Sunnyvale, USA). All fluorometric measurements were performed at room temperature. […] Baseline fluorescence in non-OAG-stimulated cells and OAG-stimulated Ca^2+ influx into control cells not treated with inhibitors were defined as 0% and 100% influx, respectively. For statistical analysis, analysis of variance was performed with Origin 6.0 software (Microcal Software Inc., Northampton, USA). […] Averaged data is expressed as means ± SEM.

A7r5 cells = experiment: Whole-cell patch clamp, AVP-induced receptor-operated cation currents in A7r5 cells; type: cell-based; settings: 10 µM, 100 nM AVP, measured at −70 mV, reversible, n = 8
Protocol: A7r5 cells (ATCC, Rockville, USA) were maintained in DMEM (with glutaMAX I, 4.5 g/l glucose and […] sodium pyruvate), supplemented with 10% (v/v) fetal bovine serum (PAA, Pasching, Austria).
The whole-cell patch clamp technique was employed to measure ion currents from single cells. Heat-polished patch pipettes with resistances of 2–4 MΩ were pulled from borosilicate glass capillaries (Hilgenberg, Malsfeld, Germany) using a DMZ-Universal puller (Zeitz-Instruments, Munich, Germany) and filled with standard intracellular solution containing: 120 mM CsOH, 120 mM gluconic acid, 2 mM MgCl2, 3 mM CaCl2, 5 mM Cs4-BAPTA, 10 mM HEPES (pH 7.4 adjusted with gluconic acid). For agonist-independent stimulation of TRPC currents the intracellular solution was supplemented with 30 µM AlCl3 and 10 mM NaF and cells were infused with AlF4 ^− through the patch pipette. AlF4 ^− is a non-specific activator of heterotrimeric G proteins that consequently leads to increased phospholipase C activity and TRPC channel activation. […]
Cells grown on poly-L-lysine-coated coverslips were continuously superfused with extracellular solution and substances were applied using an ALA BPS-8 perfusion system (ALA Scientific Instruments, Westbury, USA). […] Cells were held at −70 mV, and current-voltage (I–V) relationships were routinely measured every 2 or 3 s by applying voltage ramps (180 ms) from −100 mV to +80 mV. […]

Row | Compound | Effect on TRPC6-mediated Ca2+ entry (hTRPC6; 30 µM pre-incubation, OAG-induced) | IC50 (hTRPC6) | Hill slope n, inhibition of TRPC6-mediated Ca2+ entry (hTRPC6) | Reduction of AVP-induced receptor-operated cation currents (A7r5 cells)
1 | C#C[C@]1(OC(C)=O)CC[C@H]2[C@@H]3CCC4=CC(=NO)CC[C@@H]4[C@H]3CC[C@@]21CC (mixture of isomers) [norgestimate] | significantly reduced | 3 to 5 µM and 5.2 µM | 0.97 | 86.5±6.0%
2 | CC(=O)[C@H]1CC[C@H]2[C@@H]3CCC4=CC(=O)CC[C@]4(C)[C@H]3CC[C@]12C [progesterone] | – | 18 µM | 1.2 | –
